Data from patent US8273769B2, “Phenoxy acetic acid derivatives” (Merck Serono SA, priority 2009, dated 2012).

What follows are molecules tested against T1, CRTH2 (Homo sapiens, UniProt Q9Y5Y4) (assay: Radioligand binding Scintillation Proximity Assay ([3H]PGD2, hCRTH2-CHO cell membranes)). Conditions: 1.5 nM [3H]PGD2, hCRTH2-CHO cell membranes, SPA.
T1 sequence (Q9Y5Y4 1-395): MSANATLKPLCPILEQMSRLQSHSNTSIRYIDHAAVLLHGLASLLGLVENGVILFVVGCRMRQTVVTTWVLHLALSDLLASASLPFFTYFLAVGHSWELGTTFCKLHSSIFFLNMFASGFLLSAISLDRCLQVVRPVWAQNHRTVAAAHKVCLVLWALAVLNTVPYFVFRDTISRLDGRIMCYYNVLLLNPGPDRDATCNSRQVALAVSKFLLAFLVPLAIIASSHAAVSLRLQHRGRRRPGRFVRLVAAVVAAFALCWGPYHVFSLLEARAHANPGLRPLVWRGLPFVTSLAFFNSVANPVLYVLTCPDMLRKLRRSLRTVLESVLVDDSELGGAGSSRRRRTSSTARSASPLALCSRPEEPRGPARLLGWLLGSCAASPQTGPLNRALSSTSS
Design: host or cells: CHO cells
Protocol: Adherent CHO cells expressing hCRTH2 (Euroscreen, Belgium) were cultured in 225 cm^2 cell culture flasks (Corning, USA) in 30 ml of medium. After two rinses of phosphate buffered saline (PBS), cells were harvested in 10 ml of PBS containing 1 mM EDTA, centrifuged at 500×g for 5 min at 4° C. and frozen at −80° C. The pellet was re-suspended in 50 mM Tris-HCl, pH 7.4, 2 mM EDTA, 250 mM Sucrose, containing protease inhibitor cocktail tablets, (Complete EDTA-free, Roche, Germany) and incubated 30 min at 4° C. Cells were disrupted by nitrogen cavitation (Parr Instruments, USA) at 4° C. (800 p.s.i. for 30 min), and centrifuged at 500×g for 10 min at 4° C. Pellet containing nuclei and cellular debris was discarded and supernatant was centrifuged 60 min at 4° C. at 45000×g. Membrane pellet was re-suspended in storage buffer (10 mM HEPES/KOH pH 7.4, 1 mM EDTA, 250 mM sucrose, protease inhibitor cocktail tablets) using Dounce homogenization and frozen in liquid nitrogen, and stored at −80° C.
The inhibitory activity can be investigated by a radioligand binding Scintillation Proximity Assay (SPA) (Sawyer et al., Br. J. Pharmocol 2002, 137, 1163-72). The SPA radioligand binding assay was performed at room temperature in binding buffer (10 mM HEPES/KOH pH 7.4, 10 mM MnCl2, with protease inhibitor cocktail tablets), containing 1.5 nM [^3H]PGD2 (Perkin Elmer), 10-50 μg/ml of hCRTH2-CHO cell membrane protein and 2 mg/ml of Wheat-germ agglutinin Sintillation Proximity Assay beads (RPNQ0001, GE-Healthcare) in a final volume of 100 μl in 96 well plates (Corning, USA). Non-specific binding was determined in the presence of 10 μM PGD2 (Cayman, USA). Competing Compounds of Formula (I) were diluted in dimethylsulphoxide so that the total volume of dimethylsulfoxide was kept constant at 1% dimethylsulphoxide (Me2SO). Serial dilutions of 100 μM to 100 pM were prepared and 10 μl each of the compounds of Formula (I) stock solutions were added to the binding assay reagents and incubated for 90 min with agitation at room temperature. Binding activity was determined by using a 1450 Micro-beta scintillation counter (Wallac, UK).

| SMILES | IC50 [nM] |
| --- | --- |
| O=C(O)COc1ccc(Cl)cc1C#Cc1ccncc1 [Example 12, [4-chloro-2-(pyridin-4-ylethynyl)phenoxy]acetic acid] | 811 |
| CC1(C)C(O)c2ccc(C#Cc3cc(Cl)ccc3OCC(=O)O)cc2S1(=O)=O (centres unmarked) [Example 159, {4-chloro-2-[(3-hydroxy-2,2-dimethyl-1,1-dioxido-2,3-dihydro-1-benzothien-6-yl)ethynyl]phenoxy}acetic acid] | 37 |
| CS(=O)(=O)c1ccc(O)c(C#Cc2cc(Cl)ccc2OCC(=O)O)c1 [Example 60, (4-chloro-2-{[2-hydroxy-5-(methylsulfonyl)phenyl]ethynyl}phenoxy)acetic acid] | 296 |
| N#Cc1ccc(OCC(=O)O)c(C#Cc2ccccc2Cl)c1 [Example 23, {2-[(2-chlorophenyl)ethynyl]-4-cyanophenoxy}acetic acid] | 30 |
| CS(=O)(=O)c1cc(C#Cc2cc(Cl)ccc2OCC(=O)O)ccc1-c1ccc(C(F)(F)F)cc1 [Example 143, (4-chloro-2-{[2-(methylsulfonyl)-4′-(trifluoromethyl)biphenyl-4-yl]ethynyl}phenoxy)acetic acid] | 50 |
| O=C(O)COc1ccc(Cl)cc1C#Cc1ccc2c(c1)S(=O)(=O)CC2 [Example 155, {4-chloro-2-[(1,1-dioxido-2,3-dihydro-1-benzothien-6-yl)ethynyl]phenoxy}acetic acid] | 29 |
| CS(=O)(=O)c1ccc(N2CCCCC2)c(C#Cc2cc(C#N)ccc2OCC(=O)O)c1 [Example 62, (4-cyano-2-{[5-(methylsulfonyl)-2-piperidin-1-ylphenyl]ethynyl}phenoxy)acetic acid] | 202 |
| O=C(O)COc1ccc(Cl)cc1C#Cc1ccc(F)cc1F [Example 8, {4-chloro-2-[(2,4-difluorophenyl)ethynyl]phenoxy}acetic acid] | 123 |
| O=C(O)COc1ccc(Cl)cc1C#Cc1cncc(S(=O)(=O)N2CCOCC2)c1 [Example 79, (4-chloro-2-{[5-(morpholin-4-ylsulfonyl)pyridin-3-yl]ethynyl}phenoxy)acetic acid] | 52 |
| COC1c2ccc(C#Cc3cc(Cl)ccc3OCC(=O)O)cc2S(=O)(=O)C1(C)C (centres unmarked) [Example 161, {4-chloro-2-[(3-methoxy-2,2-dimethyl-1,1-dioxido-2,3-dihydro-1-benzothien-6-yl)ethynyl]phenoxy}acetic acid] | 24 |

Molecules with a lower IC50, results first:

| IC50 [nM] | SMILES |
| --- | --- |
| 3 | CCC(C)NS(=O)(=O)c1ccc(C)c(C#Cc2cc(Cl)ccc2OCC(=O)O)c1 (centres unmarked) [Example 114, [2-({5-[(sec-butylamino)sulfonyl]-2-methylphenyl}ethynyl)-4-chlorophenoxy]acetic acid] |
| 19 | Cc1cc[n+]([O-])cc1C#Cc1cc(Cl)ccc1OCC(=O)O [Example 31, {4-chloro-2-[(4-methyl-1-oxidopyridin-3-yl)ethynyl]phenoxy}acetic acid] |
| 2 | Cc1ccc(S(=O)(=O)N2CCCCC2C)cc1C#Cc1cc(Cl)ccc1OCC(=O)O (centres unmarked) [Example 108, [4-chloro-2-({2-methyl-5-[(2-methylpiperidin-1-yl)sulfonyl]phenyl}ethynyl)-phenoxy]acetic acid] |
| 8 | CCCN(CCC)S(=O)(=O)c1ccc(C)c(C#Cc2cc(Cl)ccc2OCC(=O)O)c1 [Example 116, [4-chloro-2-({5-[(dipropylamino)sulfonyl]-2-methylphenyl}ethynyl)phenoxy]acetic acid] |
| 19 | CS(=O)(=O)c1cc(C#Cc2cc(Cl)ccc2OCC(=O)O)ccc1-c1cccc(Cl)c1 [Example 145, (4-chloro-2-{[3′-chloro-2-(methylsulfonyl)biphenyl-4-yl]ethynyl}phenoxy)acetic acid] |
| 7 | Cc1ccc(S(=O)(=O)NC(C)(C)C)cc1C#Cc1cc(Cl)ccc1OCC(=O)O [Example 85, [2-({5-[(tert-butylamino)sulfonyl]-2-methylphenyl}ethynyl)-4-chlorophenoxy]acetic acid] |
| 8 | Cc1ccc(S(=O)(=O)C(C)C)cc1C#Cc1cc(Cl)ccc1OCC(=O)O [Example 51, (4-chloro-2-{[5-(isopropylsulfonyl)-2-methylphenyl]ethynyl}phenoxy)acetic acid] |
